The values that follow come from patent publication EP4413976B1, “A NEW VAMOROLONE PREPARATION EXHIBITING IMPROVED SOLUBILITY” (Santhera Pharmaceuticals (Schweiz) AG, priority 2023, dated 2024).

Data set [1] can be described thus: kinetic solubility in FaSSIF (Pion µDissolution monitor). The class given is physicochemical. The settings on record: thermodynamic from solid, FaSSIF pH 6.5, 37° C. On the procedure:
SDD prototypes were evaluated for kinetic solubility in FaSSIF (Fasted State Simulated Intestinal Fluid, pH = 6.5) using the Pion µDissolution monitor with a tip path length of 2 mm. Data were collected using AUPro software over a period of 18 hours in 20 mL of each media, heated to 37 ± 2 °C. A stir speed of 250 rpm for the duration of the experiment.

In the next data set the target is T1, glucocorticoid receptor (Homo sapiens, UniProt P04150).
T1 sequence (P04150 1-777): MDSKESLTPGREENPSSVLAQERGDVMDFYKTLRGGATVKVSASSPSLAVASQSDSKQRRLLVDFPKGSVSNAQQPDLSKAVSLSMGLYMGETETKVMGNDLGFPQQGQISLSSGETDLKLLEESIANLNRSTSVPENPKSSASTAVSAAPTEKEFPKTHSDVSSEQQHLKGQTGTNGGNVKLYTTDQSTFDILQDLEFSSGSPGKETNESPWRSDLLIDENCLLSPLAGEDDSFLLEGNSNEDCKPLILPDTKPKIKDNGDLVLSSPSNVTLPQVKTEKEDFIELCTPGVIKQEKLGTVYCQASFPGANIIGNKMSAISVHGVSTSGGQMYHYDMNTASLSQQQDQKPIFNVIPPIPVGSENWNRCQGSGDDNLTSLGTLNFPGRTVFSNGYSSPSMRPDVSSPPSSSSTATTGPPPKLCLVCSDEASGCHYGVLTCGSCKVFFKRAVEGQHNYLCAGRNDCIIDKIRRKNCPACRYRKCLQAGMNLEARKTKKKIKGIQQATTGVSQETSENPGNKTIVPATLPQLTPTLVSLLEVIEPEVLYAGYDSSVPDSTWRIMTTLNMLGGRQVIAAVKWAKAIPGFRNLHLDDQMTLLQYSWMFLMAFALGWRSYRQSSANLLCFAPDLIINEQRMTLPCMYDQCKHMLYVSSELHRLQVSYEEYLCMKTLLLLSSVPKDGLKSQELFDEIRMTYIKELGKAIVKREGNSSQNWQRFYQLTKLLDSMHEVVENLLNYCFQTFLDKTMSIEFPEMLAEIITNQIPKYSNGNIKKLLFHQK
Particulars: pre-clinical data, background statement; cited from earlier work.

Data set [2] in a line: solubility in aqueous solution at 37°C. The class given is physicochemical.
Data set [3] in a line: solvent solubility screening of micronized Vamorolone (visual, solvent added in aliquots). Particulars: for 200 µl / +100 µl: 10 mg Vamorolone; for 200 µl: dissolved after 200 µl; for +100 µl: dissolved after further 100 µl. The class given is physicochemical. The procedure:
The solubility of micronized Vamorolone was assessed in several typical organic solvent systems suitable for use in spray drying.
A quantity of 10 mg of Vamorolone was dispensed into a 2 mL HPLC vial. The experimental design was to add the test solvent in aliquots, 200 µl and 100 µl. After each aliquot addition the sample was to be mixed on a vortex mixer for 1 minute and solubility assessed visually. Observations were also made after one hour of solvent addition.

The test system of a further data set is inflammatory states. Particulars: multiple mouse models of inflammatory states, background statement; cited from earlier work.
The nature of data set [4]: storage of cryo-milled amorphous Vamorolone. The class given is physicochemical. Particulars: room temperature in a closed container.

Structures are written as SMILES. ≈ marks a conversion by molar mass, not a printed value.

The solubility is the concentration that dissolves in the medium under given conditions. Turning to `C[C@@H]1C[C@H]2[C@@H]3CCC4=CC(=O)C=C[C@]4(C)C3=CC[C@]2(C)[C@@]1(O)C(=O)CO` [Crystalline API, 17α,21-dihydroxy-16α-methylpregna-1,4,9(11)-triene-3,20-dione], the solubility at 5 min in data set [1] (T=5 min) was 0.0464 mg/mL (≈ 130 µM). Also, the solubility at 30 min in data set [1] (T=30 min) turned out to be 0.0489 mg/mL (≈ 137 µM). Moreover, in data set [1] (T=1 hour), the concentration in solution (solubility at 1 h) came to 0.0492 mg/mL (≈ 138 µM). In data set [1] (T=4 hour), this molecule returned a solubility at 4 h of 0.049 mg/mL (≈ 137 µM). For the same molecule, the solubility at 12 h in data set [1] (T=12 hour) came out at 0.0488 mg/mL (≈ 137 µM). Moreover, the concentration in solution in data set [1] (T=18 hour) (solubility at 18 h) was 0.0487 mg/mL (≈ 137 µM).

For the molecule `C[C@@H]1C[C@H]2[C@@H]3CCC4=CC(=O)C=C[C@]4(C)C3=CC[C@]2(C)[C@@]1(O)C(=O)CO` [Vamorolone, 17α,21-dihydroxy-16α-methylpregna-1,4,9(11)-triene-3,20-dione], the “binding to the glucocorticoid receptor” value on glucocorticoid receptor was “binds potently”. This molecule had a solubility in data set [2] of around 0.04 mg/mL (≈ 112 µM). Moreover, the “Observation 1 hour after solubility assessment” value is “Hazy” in data set [3] (Acetone); “Clear” in data set [3] (DCM); “Clear” in data set [3] (DCM:Methanol (1:1)); “Clear” in data set [3] (DCM:Methanol (1:3)); “Hazy” in data set [3] (Ethanol); “Hazy” in data set [3] (Ethyl Acetate). The “Observation 1 hour after solubility assessment” value is given as “Hazy” in data set [3] (Isopropanol), “Clear” in data set [3] (Methanol) and “Hazy” in data set [3] (Water). Also, the “Observation after solubility assessment” value is listed as “Hazy” in data set [3] (Acetone); “Clear” in data set [3] (DCM); “Clear” in data set [3] (DCM:Methanol (1:1)); “Clear” in data set [3] (DCM:Methanol (1:3)); “Hazy” in data set [3] (Ethanol); “Hazy” in data set [3] (Ethyl Acetate). Further, the “Observation after solubility assessment” value is given as “Hazy” in data set [3] (Isopropanol), “Clear” in data set [3] (Methanol) and “Hazy” in data set [3] (Water). Also, the “200 µl” value in data set [3] (Acetone) was “×”; in data set [3] (DCM:Methanol (1:1)), “✔”; in data set [3] (DCM:Methanol (1:3)) it was “✔”; in data set [3] (DCM), “×”; in data set [3] (Ethanol) it was “×”; in data set [3] (Ethyl Acetate) it was “×”. The “200 µl” value in data set [3] (Isopropanol), in data set [3] (Methanol) and in data set [3] (Water) was “×” throughout. The “+100 µl” value in data set [3] (Acetone) is reported as “×”; in data set [3] (DCM), “✔”; in data set [3] (Ethanol) it was “×”; in data set [3] (Ethyl Acetate), “×”; in data set [3] (Isopropanol) it was “×”; in data set [3] (Methanol), “✔”. Also, the “+100 µl” value in data set [3] (Water) was “×”. Besides, the clear solution in data set [3] (DCM (dichloromethane):methanol (1:1)) and in data set [3] (DCM (dichloromethane):methanol (1:3)) was 50 mg/mL throughout. Besides, the efficacy entry in the data set with inflammatory states is recorded as “efficacy similar to prednisolone”.

Take `C[C@@H]1C[C@H]2[C@@H]3CCC4=CC(=O)C=C[C@]4(C)C3=CC[C@]2(C)[C@@]1(O)C(=O)CO` [amorphous Vamorolone, 17α,21-dihydroxy-16α-methylpregna-1,4,9(11)-triene-3,20-dione]: in data set [4], the “physical stability of the amorphous form” value was “recrystallize within days”.
